Experimental data taken from US20080021002A1, “VITAMIN D COMPOUNDS USED TO STABILIZE KIDNEY TRANSPLANTS” (priority 2000, published 2008).

Legend:
MMP 2 protein = assay: Antigen-capture ELISA of renal graft lysates, total MMP 2 protein; assay type: in vivo, rat; details: vs untreated allogeneic group (FIG. 5B); 1,25-(OH)2D3: syngeneic and allogeneic groups; CSA: allogeneic
Description: FIG. 5 is a set of graphs showing that 1,25-(OH)2D3 Treatment Alters MMP and TIMP Expression . […] S26 was used as the housekeeping gene. […] Fold changes are expressed relative to the allogeneic untreated control.
Enzyme Linked Immunoabsorbant Assay (ELISA): TGFβ-1 and MMP 2 levels were quantified by antigen-capture ELISA. […] After blocking with 1× block buffer at 37° C. for 35 minutes 25 ul of cell lysate (diluted 1:10 in the lysis buffer) was added to the wells. A standard curve was generated by performing two fold serial dilutions of the standard active TGFβ-1 antigen (diluted 15.6 pg/ml to 1000 pg/ml, Promega, Inc.) or MMP2 (0.5 ng/ml to 100 ng/ml, R and D Systems). The plate was incubated for 2 hours at RT with shaking and then washed extensively with wash buffer (0.05% Tween 20 in PBS) followed by PBS. The TGFβ-1 ELISA was then developed according to the manufacturer's instruction. For the MMP2 ELISA, biotinylated detection antibody, clone 101721 (25 μL/well at 1.4 ug/ml R and D Systems) was added and incubated at RT (1hour, with shaking). The antibody was biotinylated using a Mini-Biotin-XX Protein Labeling Kit (F-6347) according to manufacturer's instruction (Molecular Probes, Eugene Oreg.). […] Absorbance was measured at 450 nm on a Vmax Kinetic microplate reader (Molecular Devices, Sunnyvale Calif.). […]

[1] = Effect of calcitriol on CsA and FK506 serum levels and dosages in transplant patients; assay type: in vivo, human
Description: Methodology-retrospective analysis: The University of Wisconsin transplant database was screened to identify any kidney and/or kidney-pancreas transplant recipient who received 1,25-dihydroxyvitamin D3 (calcitriol)peri-post-transplant. Clinical and demographic variables were abstracted from the database. Those patients with adequate follow-up data were included in the analysis (≧1year follow-up data following the initiation of calcitriol). Demographic variables included race, age, and nay history of parathyroidectomy as these patients would likely be receiving calcitriol at time of transplantation. The effect of calcitriol treatment on renal function was analyzed using general linear mixed modeling of the change in slope of renal function prior to and following the start of calcitriol therapy. […] Adverse events and hypercalcemia were noted by identifiers in the database and by serum calcium levels as recorded in the database. Hypercalcemia was defined as a serum calcium >10.5 mg/dl. […] Both of these agents have beneficial effects in prolonging allograft function by altering the ability for activated T cells to produce interleukin-2 (IL-2). However, both of these agents are also associated with drug-related nephrotoxicity that is manifested by characteristic histologic changes in the allograft, e.g. tubulointerstitial fibrosis, and loss of allograft function long-term.

[2] = system: kidney or kidney-pancreas transplant recipients; assay: Retrospective analysis of renal function (serial serum creatinine) in calcitriol-treated transplant patients; assay type: in vivo, human
Description: Methodology-retrospective analysis: The University of Wisconsin transplant database was screened to identify any kidney and/or kidney-pancreas transplant recipient who received 1,25-dihydroxyvitamin D3 (calcitriol)peri-post-transplant. Clinical and demographic variables were abstracted from the database. Those patients with adequate follow-up data were included in the analysis (≧1year follow-up data following the initiation of calcitriol). Demographic variables included race, age, and nay history of parathyroidectomy as these patients would likely be receiving calcitriol at time of transplantation. The effect of calcitriol treatment on renal function was analyzed using general linear mixed modeling of the change in slope of renal function prior to and following the start of calcitriol therapy. […] Adverse events and hypercalcemia were noted by identifiers in the database and by serum calcium levels as recorded in the database. Hypercalcemia was defined as a serum calcium >10.5 mg/dl. Data assessment—Demographics: Calcitriol-treatment patients were divided into: Group 1: patients who initiated calcitriol therapy<one year following transplantation, Group 2: patients who remained on or initiated calcitriol therapy within two weeks of transplantation, Data assessment—outcomes for Group 1 patients: Renal function was determined by assessing serial serum creatinine values. This serum measure is a standard and accepted measure of renal function. The start of calcitriol therapy was defined as day 0. Time prior to initiation of calcitriol therapy was designated by a negative value. Mean serum creatinine levels appeared to increase in Group 1 patients (indicative of declining renal function) until the time of calcitriol therapy was initiated (Table 3).

C=C1/C(=C\C=C2/CCC[C@]3(C)[C@@H]([C@H](C)CCCC(C)(C)O)CC[C@@H]23)C[C@@H](O)C[C@@H]1O [calcitriol, 1,25-dihydroxyvitamin D3]
Total MMP 2 protein expression (MMP 2 protein): increased
Effect on CsA or FK506 dosages or serum drug levels ([1]; combined analysis of all Group 1 and Group 2 patients): no significant effect
Trends in mean CsA levels or variability in CsA levels ([1]; seven of the 26 Group 1 patients with serial CsA levels): No trends
Graft failures (loss of the transplant) ([2]; Group 1 (26 patients)): six
Serum creatinine levels following initiation of therapy ([2]; Group 1 patients): stabilized
Mean serum creatinine ([2]; Group 1 patients, day 100 after start of calcitriol therapy): 2.54 mg/dL
Mean serum creatinine ([2]; Group 1 patients, day 200 after start of calcitriol therapy): 2.44 mg/dL
Mean serum creatinine ([2]; Group 1 patients, day 300 after start of calcitriol therapy): 2.50 mg/dL
Mean serum creatinine ([2]; Group 1 patients, day 400 after start of calcitriol therapy): 2.27 mg/dL
Mean serum creatinine ([2]; Group 1 patients, day 500 after start of calcitriol therapy): 2.37 mg/dL
Creatinine trend (slope) after 300 days of therapy ([2]; Group 1 patients, repeated measures analysis of slopes): creatinine was decreasing evidenced by a negative slope
Difference (change in slope of serum creatinine over time) ([2]; Group 1 patients, treatment day +100, negative = decreasing slope, improved renal function): −0.0050
Difference (change in slope of serum creatinine over time) ([2]; Group 1 patients, treatment day +200): −0.0046
Difference (change in slope of serum creatinine over time) ([2]; Group 1 patients, treatment day +300): −0.0080
Difference (change in slope of serum creatinine over time) ([2]; Group 1 patients, treatment day +400): −0.0085
Difference (change in slope of serum creatinine over time) ([2]; Group 1 patients, treatment day +500): −0.0078
Graft failures ([2]; Group 2 (22 patients)): two
Analysis of interval slopes of serum creatinine ([2]; Group 2 patients): no interview slopes significantly different from 0
Mean serum creatinine ([2]; Group 2 patients (table title prints Group 1), day 100 of calcitriol): 1.61 mg/dL
Mean serum creatinine ([2]; Group 2 patients (table title prints Group 1), day 200 of calcitriol): 1.79 mg/dL
Mean serum creatinine ([2]; Group 2 patients (table title prints Group 1), day 300 of calcitriol): 1.70 mg/dL
Mean serum creatinine ([2]; Group 2 patients (table title prints Group 1), day 400 of calcitriol): 1.62 mg/dL
Mean serum creatinine ([2]; Group 2 patients (table title prints Group 1), day 500 of calcitriol): 1.82 mg/dL
Mean serum creatinine levels over time ([2]; Group 2 patients, first 600 days following initiation of calcitriol): remained stable
